Data reported in patent US10328161B2, “Luciferin derivatives from bicyclic reactants and aminothiol derivatives and methods of use thereof” (The Regents of the University of California, priority 2012, dated 2019).

Key:
Format in all cases: in vivo
[1] = target: T1, caspase 8 (Mus musculus, UniProt O89110); assay: Lipopolysaccharide inflammation model, caspase 8 detection with IETDC; settings: pan-caspase inhibitor 1 μmol IP, LPS-treated mice
T1 construct: from tissue; host or cells: living FVB-luc+ mice (whole animal, IP injection) after LPS challenge
T1 sequence (O89110 219-376 limits assumed): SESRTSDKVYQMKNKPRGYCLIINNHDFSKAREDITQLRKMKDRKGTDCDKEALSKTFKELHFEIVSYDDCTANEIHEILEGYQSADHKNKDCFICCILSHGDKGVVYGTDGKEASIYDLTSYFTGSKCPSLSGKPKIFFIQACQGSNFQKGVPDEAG
T1 sequence (O89110 388-480 limits assumed): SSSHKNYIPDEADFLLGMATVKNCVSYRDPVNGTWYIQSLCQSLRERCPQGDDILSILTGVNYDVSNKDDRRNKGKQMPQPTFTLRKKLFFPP
From the text: (§1) A Xenogen IVIS Spectrum instrument (Caliper Life Sciences, Hopkinton, Mass.) was used for bioluminescent imaging in all animal experiments. Mice were anesthetized prior to injection and during imaging via inhalation of isoflurane. Phosphate Buffered Saline (PBS) was purchased from Thermo Fisher Scientific (Waltham, Mass.), and saline (0.9%) was made from sodium chloride and Millipore water. Isoflurane was purchased from Phoenix Pharmaceuticals, Inc. (St. Joseph, Mo.), and pharmaceutical grade DMSO was purchased from Sigma-Aldrich (St. Louis, Mo.). Medical grade oxygen was purchased from Praxair (Danbury, Conn.).
(§2) FVB-luc^+ (FVB-Tg(CAG-luc,-GFP)L2G85Chco/J) mice were bred at UC Berkeley, and were single or group-housed on a 12:12 light-dark cycle at 22° C. with free access to food and water. All studies were approved and performed according to the guidelines of the Animal Care and Use Committee of the University of California, Berkeley.
Unshaven, female FVB-luc^+ mice, aged 2-5 months, were anesthetized with isoflurane and injected IP with lipopolysaccharides (LPS, 3 mg/kg in 50 μL of saline) or saline (50 μL). For studies with PCL-2 alone, mice were injected IP with either apocynin (10 mg/kg in 20 μL of DMSO) or DMSO (20 μL) 6 h after LPS injection. […]

[2] = tested on: FVB-luc^+ mice; assay: Control: effect of inhibitors and antioxidants on HCBT and D-cysteine luciferin signal in mice; settings: apocynin 10 mg/kg or z-VD-OPh 1 μmol IP; HCBT and D-cysteine 0.01 μmol each
Description: (a) Total photon fluxes, 0-15 min post-injection, for mice (n=3) injected with apocynin (IP, 10 mg/kg in 20 μL DMSO) or vehicle (IP, 20 μL DMSO) two min prior to injections of a mixture of HCBT and D-cysteine (IP, 0.01 μmol each, in 50 μL of 1:1 DMSO:PBS). (b) Total photon fluxes, 15-45 min post-injection, for mice (n=3) injected with z-VD(OMe)-OPh (IP, 1 μmol in 20 μL DMSO) or vehicle (IP, 20 μL DMSO) 30 min prior to injections of a mixture of HCBT and D-cysteine (IP, 0.01 μmol each, in 50 μL of 1:1 DMSO:PBS). Error bars are ±SEM.
FIG. 18 depicts bioluminescent signals from HCBT and D-cysteine with ascorbic acid in FVB-luc^+ mice. Total photon fluxes, 30-60 min post-injection, for mice (n=3-4) injected with ascorbic acid (IP, 200 mg/kg in 30 μL saline) or vehicle (IP, 30 μL saline) 4.5 h prior to injections of a mixture of HCBT and D-cysteine (IP, 0.01 μmol each, in 50 μL of 1:1 DMSO:PBS). Error bars are ±SEM.

[3] = tested on: H2O2 and caspase 8; assay: Lipopolysaccharide inflammation model, dual detection with PCL-2 and IETDC; settings: ascorbic acid 200 mg/kg and z-VD-OPh 1 μmol used together, LPS-treated mice
From the text: as §1, §2
For studies with PCL-2 and IETDC, mice were injected IP with ascorbic acid (200 mg/kg in 30 μL of saline) or the saline vehicle (30 μL) 30 min prior to IP injection of LPS (3 mg/kg in 50 μL of saline) or saline (50 μL). Two hours after injection of LPS, z-VD(OMe)-OPh (1 μmol in 20 μL of DMSO) or the vehicle, DMSO (20 μL), was injected IP. […]

[4] = Antioxidant (NAC) experiments in mice; settings: NAC 10 mg/kg IP, H2O2 1.5 μmol, PCL-2 and D-cysteine 0.05 μmol each
From the text: A Xenogen IVIS Spectrum instrument (Caliper Life Sciences, Hopkinton, Mass.) was used for bioluminescent imaging in all animal experiments. Mice were anesthetized prior to injection and during imaging via inhalation of isoflurane. Phosphate Buffered Saline (PBS) was purchased from Thermo Fisher Scientific (Waltham, Mass.), and saline (0.9%) was made from sodium chloride and Millipore water. Isoflurane was purchased from Phoenix Pharmaceuticals, Inc. (St. Joseph, Mo.), and pharmaceutical grade DMSO was purchased from Sigma-Aldrich (St. Louis, Mo.). Medical grade oxygen was purchased from Praxair (Danbury, Conn.). FVB-luc^+ (FVB-Tg(CAG-luc,-GFP)L2G85Chco/J) mice were bred at UC Berkeley, and were single or group-housed on a 12:12 light-dark cycle at 22° C. with free access to food and water. All studies were approved and performed according to the guidelines of the Animal Care and Use Committee of the University of California, Berkeley. Unshaven, male FVB-luc^+ mice, were anesthetized with isoflurane and injected IP with NAC (10 mg/kg in 25 μL of PBS, pH 7-8) or PBS (25 μL). After 2 min, the mice were injected IP with a mixture of PCL-2 and D-cysteine (0.05 μmol each, in 50 μL of 1:1 DMSO:PBS) immediately prior to IP injection of H2O2 (1.5 μmol in 75 μL of PBS). […]

Compound | attenuation of the IETDC signal [1] | effect on the luciferin signal from HCBT and D-cysteine in vivo [2] | decrease in dual-probe bioluminescent signal [3] | effect of NAC on the PCL-2 bioluminescent signal [4]
COC(=O)CC(NC(=O)C(NC(=O)OCc1ccccc1)C(C)C)C(=O)COc1c(F)cccc1F (stereo not shown) [z-VD-OPh] | 34% | do not alter the luciferin signal | 30% | –
CC(=O)N[C@@H](CS)C(=O)O [NAC, N-acetyl-L-cysteine] | – | – | – | considerably attenuated
